Measurements: article PMC9704079, “Enhancement of the anticancer effect of atorvastatin-loaded nanoemulsions by improving oral absorption via multivalent intestinal transporter-targeting lipids” (Drug Delivery, 2022)

Experiments:
4T1 cells [1] = test: In vitro 4T1 cell invasion assay; format: cell-based, murine; conditions: 100 µg/mL ATV, 24 h
Procedure: (§1) The in vitro inhibition of 4T1 cell invasion and migration by ATV-NEs was assessed by Cultrex® 24-well basement membrane extract cell invasion assays (Trevigen, Inc., Gaithersburg, MD, USA). Briefly, the membrane insert in each well was uniformly coated with 100 µL of 0.5× basement membrane extract and incubated for 24 h at 37 °C. Separately, uncoated wells were used for cell migration assays. Next, each coated well was washed using 1× buffer. For invasion assays, the cells in Roswell Park Memorial Institute medium with 0.5% FBS were seeded into each apical chamber at a density of 1 × 10^6 cells/well. For cell migration assays, the same number of cells was seeded in the uncoated apical compartment. Subsequently, 500 µL of Roswell Park Memorial Institute medium containing 10% FBS were loaded into the basal compartment to serve as a chemoattractant; the cells were then cultured at 37 °C. After incubation for 24 h, both apical and basal compartments were washed with 1× buffer and the basal chamber was filled with 500 µL of cell dissociation solution (calcein-AM); the cells were incubated for 1 h at 37 °C. Finally, the dissolved calcein-AM concentration was measured with a fluorescence reader at an excitation wavelength of 485 nm and emission wavelength of 520 nm.

4T1 cells [2] = test: In vitro 4T1 cell adhesion to ECM components; format: cell-based, murine; conditions: 100 µg/mL ATV, 1.5 h; fibronectin, collagen I, collagen IV, laminin I, fibrinogen
Procedure: After incubation for 1.5 h at 37 °C, the cells were washed with PBS (pH 7.4) and stained by incubation for 10 min with the dye included in the kit. Then, each well was gently washed five times with 500 µL of sterilized water; 200 µL of extraction solution were added to each well, and the cells were incubated for 10 min in an orbital shaker. Finally, change in color was measured with a plate reader at 560 nm; inhibition of adhesion in the drug-treated cells was evaluated relative to inhibition in the untreated cells (control).

[3] = test system: MCF-7 (human breast adenocarcinoma) cells; format: cell-based; conditions: 24 h
Procedure: (§2) After incubation for 1 h, the absorbance at 450 nm was measured and the percentage of viable cells was calculated by comparison with the absorbance of untreated cells (100% viability).

[4] = test system: 4T1 (murine stage IV breast cancer) cells; format: cell-based; conditions: mouse, 24 h
Procedure: as §2

4T1 cells [5] = test: In vitro 4T1 cell migration assay; format: cell-based, murine; conditions: Mus musculus, 4T1, 24 h; read-out: Inhibition of 4T1 cell migration compared with untreated controls
Procedure: as §1

4T1 cell tumor = test: In vivo tumor growth inhibition in 4T1 cell tumor-bearing mice; design: species or system BALB/c mice
Procedure: To evaluate the in vivo antitumor efficacy of oral ATV-NEs, 1 × 10^6 4T1 cells dispersed in 100 μL of PBS (pH 7.4) were subcutaneously inoculated into the left flanks of BALB/c mice. […] To assess tumor growth suppression, the tumor size and body weight of the mice in all groups were measured every 3 days after treatment. The tumor volume in each mouse was calculated as (width)^2 × length × 0.52. After 21 days of treatment, mice were sacrificed and tumor masses were measured.

CC(C)c1c(C(=O)Nc2ccccc2)c(-c2ccccc2)c(-c2ccc(F)cc2)n1CC[C@@H](O)C[C@@H](O)CC(=O)O [ATV in 0.5% DMSO, Atorvastatin]
Decrease in 4T1 cell invasion compared with untreated controls (4T1 cells [1]): 31.9%
4T1 cell adhesion to ECM components (in words) (4T1 cells [2]): significantly decreased adhesion
Concentration at which cytotoxic effects were exhibited [3]: > 100 µg/mL ATV
Concentration at which cytotoxic effects were exhibited [4]: > 100 µg/mL ATV
inhibition at 100 µg/mL (4T1 cells [5]): 20.3%

CC(C)c1c(C(=O)Nc2ccccc2)c(-c2ccccc2)c(-c2ccc(F)cc2)n1CC[C@@H](O)C[C@@H](O)CC(=O)O [ATV in 10% DMF, Atorvastatin]
Tumor growth compared to untreated controls (in words) (4T1 cell tumor; daily oral, 40 mg/kg ATV in 10% DMF, 21 days): did not inhibit tumor growth

CC(C)c1c(C(=O)Nc2ccccc2)c(-c2ccccc2)c(-c2ccc(F)cc2)n1CC[C@@H](O)C[C@@H](O)CC(=O)O [ATV-IP, Atorvastatin]
Tumor growth inhibition compared to controls (4T1 cell tumor; once-daily IP, 5 mg/kg ATV in 10% DMF, 21 days): 30.4%
Tumor growth inhibition compared to controls (4T1 cell tumor; once-daily IP, 10 mg/kg ATV in 10% DMF, 21 days): 52.5%
Isolated tumor mass reduction compared to controls (4T1 cell tumor; once-daily IP, 10 mg/kg ATV in 10% DMF, day 21): 73.8%
